Experimental data reported in PubChem BioAssay (NCI).
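Cells were grown in 96-well plates and exposed to each compound for 48 hours at five concentrations; endpoints were interpolated linearly between bracketing concentrations, or set to the highest concentration if not reached. GI50 marks 50% less growth. TGI: total growth inhibition.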

Key:
Experiment in all cases: growth of human tumour cells (NCI), 48 h
786-0 renal = tested on: 786-0 renal
A498 renal = tested on: A498 renal
A549 NSCLC = tested on: A549 NSCLC
ACHN renal = tested on: ACHN renal
BT-549 breast = tested on: BT-549 breast
CAKI-1 renal = tested on: CAKI-1 renal
CCRF-CEM leukemia = tested on: CCRF-CEM leukemia
COLO 205 colon = tested on: COLO 205 colon
DU-145 prostate = tested on: DU-145 prostate
EKVX NSCLC = tested on: EKVX NSCLC
HCC-2998 colon = tested on: HCC-2998 colon
HCT-116 colon = tested on: HCT-116 colon
HCT-15 colon = tested on: HCT-15 colon
HL-60(TB) leukemia = tested on: HL-60(TB) leukemia
HOP-62 NSCLC = tested on: HOP-62 NSCLC
HOP-92 NSCLC = tested on: HOP-92 NSCLC
HS 578T breast = tested on: HS 578T breast
HT29 colon = tested on: HT29 colon
IGROV1 ovarian = tested on: IGROV1 ovarian
K-562 leukemia = tested on: K-562 leukemia
KM12 colon = tested on: KM12 colon
LOX IMVI melanoma = tested on: LOX IMVI melanoma
M14 melanoma = tested on: M14 melanoma
MALME-3M melanoma = tested on: MALME-3M melanoma
MCF7 breast = tested on: MCF7 breast
MDA-MB-231 breast = tested on: MDA-MB-231 breast
MDA-MB-435 = tested on: MDA-MB-435
MDA-MB-468 breast = tested on: MDA-MB-468 breast
MOLT-4 leukemia = tested on: MOLT-4 leukemia
NCI-H226 lung = tested on: NCI-H226 lung
NCI-H23 lung = tested on: NCI-H23 lung
NCI-H460 lung = tested on: NCI-H460 lung
NCI-H522 lung = tested on: NCI-H522 lung
NCI/ADR-RES ovarian = tested on: NCI/ADR-RES ovarian
OVCAR-3 ovarian = tested on: OVCAR-3 ovarian
OVCAR-4 ovarian = tested on: OVCAR-4 ovarian
OVCAR-5 ovarian = tested on: OVCAR-5 ovarian
OVCAR-8 ovarian = tested on: OVCAR-8 ovarian
PC-3 prostate = tested on: PC-3 prostate
RPMI-8226 leukemia = tested on: RPMI-8226 leukemia
RXF 393 renal = tested on: RXF 393 renal
SF-268 CNS = tested on: SF-268 CNS
SF-295 CNS = tested on: SF-295 CNS
SF-539 CNS = tested on: SF-539 CNS
SK-MEL-2 melanoma = tested on: SK-MEL-2 melanoma
SK-MEL-28 melanoma = tested on: SK-MEL-28 melanoma
SK-MEL-5 melanoma = tested on: SK-MEL-5 melanoma
SK-OV-3 ovarian = tested on: SK-OV-3 ovarian
SN12C renal = tested on: SN12C renal
SNB-19 CNS = tested on: SNB-19 CNS
SNB-75 CNS = tested on: SNB-75 CNS
SR leukemia = tested on: SR leukemia
SW-620 colon = tested on: SW-620 colon
T-47D breast = tested on: T-47D breast
TK-10 renal = tested on: TK-10 renal
U251 CNS = tested on: U251 CNS
UACC-257 melanoma = tested on: UACC-257 melanoma
UACC-62 melanoma = tested on: UACC-62 melanoma
UO-31 renal = tested on: UO-31 renal

COc1ccccc1-n1cc(C#N)c(N)c1C(=O)c1ccc(Cl)cc1Cl
GI50 (786-0 renal): 7.12 µM | TGI (786-0 renal): > 100 µM | GI50 (A498 renal): 72 µM | TGI (A498 renal): > 100 µM | GI50 (A549 NSCLC): 7.39 µM | TGI (A549 NSCLC): > 100 µM | GI50 (ACHN renal): 7.79 µM | TGI (ACHN renal): > 100 µM | GI50 (BT-549 breast): 3.41 µM | TGI (BT-549 breast): 58.5 µM | GI50 (CAKI-1 renal): 4.7 µM | TGI (CAKI-1 renal): 28.4 µM | GI50 (CCRF-CEM leukemia): 4.68 µM | TGI (CCRF-CEM leukemia): > 100 µM | GI50 (COLO 205 colon): 5.7 µM | TGI (COLO 205 colon): > 100 µM | GI50 (DU-145 prostate): 9.73 µM | TGI (DU-145 prostate): > 100 µM | GI50 (EKVX NSCLC): 8.24 µM | TGI (EKVX NSCLC): > 100 µM | GI50 (HCC-2998 colon): 12.4 µM | TGI (HCC-2998 colon): > 100 µM | GI50 (HCT-116 colon): 4.02 µM | TGI (HCT-116 colon): 28.7 µM | GI50 (HCT-15 colon): 3.62 µM | TGI (HCT-15 colon): 64.9 µM | GI50 (HL-60(TB) leukemia): 3.15 µM | TGI (HL-60(TB) leukemia): 70.4 µM | GI50 (HOP-62 NSCLC): 6.4 µM | TGI (HOP-62 NSCLC): 87.7 µM | GI50 (HOP-92 NSCLC): 16.8 µM | TGI (HOP-92 NSCLC): > 100 µM | GI50 (HS 578T breast): 3.02 µM | TGI (HS 578T breast): 58.1 µM | GI50 (HT29 colon): 3.18 µM | TGI (HT29 colon): > 100 µM | GI50 (IGROV1 ovarian): 7.49 µM | TGI (IGROV1 ovarian): > 100 µM | GI50 (K-562 leukemia): 3.63 µM | TGI (K-562 leukemia): > 100 µM | GI50 (KM12 colon): 3.9 µM | TGI (KM12 colon): > 100 µM | GI50 (LOX IMVI melanoma): 4.89 µM | TGI (LOX IMVI melanoma): > 100 µM | GI50 (M14 melanoma): 3.27 µM | TGI (M14 melanoma): > 100 µM | GI50 (MALME-3M melanoma): 4.2 µM | TGI (MALME-3M melanoma): > 100 µM | GI50 (MCF7 breast): 3.94 µM | TGI (MCF7 breast): 35.2 µM | GI50 (MDA-MB-231 breast): 9.05 µM | TGI (MDA-MB-231 breast): > 100 µM | GI50 (MDA-MB-435): 1.92 µM | TGI (MDA-MB-435): 4.41 µM | GI50 (MDA-MB-468 breast): 2.48 µM | TGI (MDA-MB-468 breast): 8.82 µM | GI50 (MOLT-4 leukemia): 4.84 µM | TGI (MOLT-4 leukemia): > 100 µM | GI50 (NCI-H226 lung): 5.79 µM | TGI (NCI-H226 lung): 64.3 µM | GI50 (NCI-H23 lung): 7.55 µM | TGI (NCI-H23 lung): > 100 µM | GI50 (NCI-H460 lung): 4.66 µM | TGI (NCI-H460 lung): > 100 µM | GI50 (NCI-H522 lung): 1.87 µM | TGI (NCI-H522 lung): 5.12 µM | GI50 (NCI/ADR-RES ovarian): 3.55 µM | TGI (NCI/ADR-RES ovarian): 64.2 µM | GI50 (OVCAR-3 ovarian): 3.86 µM | TGI (OVCAR-3 ovarian): 18.6 µM | GI50 (OVCAR-4 ovarian): 8.96 µM | TGI (OVCAR-4 ovarian): > 100 µM | GI50 (OVCAR-5 ovarian): 9.71 µM | TGI (OVCAR-5 ovarian): > 100 µM | GI50 (OVCAR-8 ovarian): 21 µM | TGI (OVCAR-8 ovarian): > 100 µM | GI50 (PC-3 prostate): 5.6 µM | TGI (PC-3 prostate): > 100 µM | GI50 (RPMI-8226 leukemia): 9.39 µM | TGI (RPMI-8226 leukemia): > 100 µM | GI50 (RXF 393 renal): 4.37 µM | TGI (RXF 393 renal): 39.3 µM | GI50 (SF-268 CNS): 9.77 µM | TGI (SF-268 CNS): > 100 µM | GI50 (SF-295 CNS): 3.72 µM | TGI (SF-295 CNS): 27 µM | GI50 (SF-539 CNS): 3.37 µM | TGI (SF-539 CNS): 11.5 µM | GI50 (SK-MEL-2 melanoma): 2.69 µM | TGI (SK-MEL-2 melanoma): 7.5 µM | GI50 (SK-MEL-28 melanoma): 7.58 µM | TGI (SK-MEL-28 melanoma): > 100 µM | GI50 (SK-MEL-5 melanoma): 4.84 µM | TGI (SK-MEL-5 melanoma): > 100 µM | GI50 (SK-OV-3 ovarian): 3.36 µM | TGI (SK-OV-3 ovarian): 28.3 µM | GI50 (SN12C renal): 5.24 µM | TGI (SN12C renal): > 100 µM | GI50 (SNB-19 CNS): 6.6 µM | TGI (SNB-19 CNS): 61.6 µM | GI50 (SNB-75 CNS): 2.61 µM | TGI (SNB-75 CNS): 8.54 µM | GI50 (SR leukemia): 3.53 µM | TGI (SR leukemia): > 100 µM | GI50 (SW-620 colon): 3.98 µM | TGI (SW-620 colon): > 100 µM | GI50 (T-47D breast): 4.53 µM | TGI (T-47D breast): > 100 µM | GI50 (TK-10 renal): 52.9 µM | TGI (TK-10 renal): > 100 µM | GI50 (U251 CNS): 4.45 µM | TGI (U251 CNS): > 100 µM | GI50 (UACC-257 melanoma): 6.31 µM | TGI (UACC-257 melanoma): > 100 µM | GI50 (UACC-62 melanoma): 3.67 µM | TGI (UACC-62 melanoma): 42.8 µM | GI50 (UO-31 renal): 7.87 µM | TGI (UO-31 renal): > 100 µM
